Source: patent publication US20160257676A1, “Aminoisoquinoline Derivatives as Protein Kinase Inhibitors” (ETERNITY BIOSCIENCE INC., priority 2012, published 2016)

Assays:
[1] = system: A375 cells; assay: Cell proliferation assay (CellTiter-Glo), A375 cells; type: cell-based; conditions: Homo sapiens, A-375, 72 h, 3-day treatment, vs vehicle control (1% DMSO), read-out: A375 cell growth IC50
Experimental: Cell Proliferation Assay:
A375, Colo-205, Calu-6, and SW-480 cells were purchased from American Type Culture Collection (USA). All cells were cultured in the recommended medium and serum concentration. Cells were maintained at 37° C. in a humidified atmosphere with 5% CO2. For cell proliferation assay, cells were seeded in 96-well pates at a density of 1,000 to 5,000 cells per well and cultured overnight at 37° C. in medium supplemented with 5-10% FBS. On the next day, the test articles at various concentrations or vehicle control (1% DMSO) were added into cell culture. After 3-day treatment, the growth of cells was assayed by the CellTiter-Glo® Luminestceaent Cell Viability Assay (Promega).

[2] = biological target: BRAF^V600E (Homo sapiens, UniProt P15056, V600E); assay: BRAF^V600E enzymatic activity assay (LanthaScreen kinase assay kit, TR-FRET)
BRAF^V600E, sequence (P15056 whole entry V600E): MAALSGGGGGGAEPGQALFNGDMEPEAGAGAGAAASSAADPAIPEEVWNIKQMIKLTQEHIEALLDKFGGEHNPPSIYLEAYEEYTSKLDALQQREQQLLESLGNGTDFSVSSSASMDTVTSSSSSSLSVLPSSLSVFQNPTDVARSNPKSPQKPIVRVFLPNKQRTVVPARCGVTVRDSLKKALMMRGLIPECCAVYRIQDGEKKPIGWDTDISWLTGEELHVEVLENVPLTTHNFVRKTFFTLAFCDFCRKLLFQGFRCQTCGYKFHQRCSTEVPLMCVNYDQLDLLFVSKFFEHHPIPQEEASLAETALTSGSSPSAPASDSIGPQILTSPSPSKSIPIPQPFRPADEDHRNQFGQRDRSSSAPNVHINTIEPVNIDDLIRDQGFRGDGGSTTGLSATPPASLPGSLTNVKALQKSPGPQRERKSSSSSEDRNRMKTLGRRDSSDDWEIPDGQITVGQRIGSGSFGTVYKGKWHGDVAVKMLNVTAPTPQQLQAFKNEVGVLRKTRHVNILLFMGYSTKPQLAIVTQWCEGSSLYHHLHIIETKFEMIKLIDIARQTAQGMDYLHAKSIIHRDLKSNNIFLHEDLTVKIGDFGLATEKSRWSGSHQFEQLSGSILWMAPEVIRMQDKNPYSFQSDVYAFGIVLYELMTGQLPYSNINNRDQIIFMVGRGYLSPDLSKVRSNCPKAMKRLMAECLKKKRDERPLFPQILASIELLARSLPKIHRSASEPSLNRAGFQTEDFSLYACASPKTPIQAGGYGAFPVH

IC50 [1] [nM]	IC50 [2] [nM]	Compound
103	8690	CCCS(=O)(=O)Nc1ccc(F)c(-c2ccc3cc(N)ncc3c2)c1F [Example 1, N-(3-(3-aminoisoquinolin-7-yl)-2,4-difluorophenyl)propane-1-sulfonamide]
775		CCCS(=O)(=O)Nc1ccc(F)c(-c2ccc3cc(NC[C@H](C)NC(=O)OC)ncc3c2)c1F [Example 2, (S)-methyl-1-(7-(2,6-difluoro-3-(propylsulfonamido)phenyl)isoquinolin-3-ylamino)propan-2-ylcarbamate]
1000	799	CCCS(=O)(=O)Nc1ccc(F)c(-c2cc3cnc(N)cc3cc2OC)c1F [Example 3, N-(3-(3-amino-6-methoxyisoquinolin-7-yl)-2,4-difluorophenyl)propane-1-sulfonamide]
19	212	CCCS(=O)(=O)Nc1ccc(F)c(-c2cc3cnc(NC[C@H](C)NC(=O)OC)cc3cc2OC)c1F [Example 4, methyl N-[(1S)-2-[[7-[2,6-difluoro-3-(propylsulfonylamino)phenyl]-6-methoxy-3-isoquinolyl]amino]-1-methyl-ethyl]carbamate]
726	3660	CCCS(=O)(=O)Nc1ccc(F)c(-c2cc3cnc(NC[C@@H](C)NC(=O)OC)cc3cc2OC)c1F [Example 5, methyl N-[(1R)-2-[[7-[2,6-difluoro-3-(propylsulfonylamino)phenyl]-6-methoxy-3-isoquinolyl]amino]-1-methyl-ethyl]carbamate]
158	100	CCCS(=O)(=O)Nc1ccc(F)c(-c2cc3cnc(NC[C@H](C)NC(=O)OC)cc3cc2OCCF)c1F [Example 6, methyl N-[(1S)-2-[[7-[2,6-difluoro-3-(propylsulfonylamino)phenyl]-6-(2-fluoroethoxy)-3-isoquinolyl]amino]-1-methyl-ethyl]carbamate]
306	560	CCCS(=O)(=O)Nc1ccc(F)c(-c2cc3cnc(NC[C@H](C)NC(=O)OC)cc3cc2CC)c1F [Example 7, methyl N-[(1S)-2-[[7-[2,6-difluoro-3-(propylsulfonylamino)phenyl]-6-ethyl-3-isoquinolyl]amino]-1-methyl-ethyl]carbamate]
227	70	CCCS(=O)(=O)Nc1ccc(F)c(-c2ccc3c(cnc4[nH]ncc43)c2)c1F [Example 8, N-(2,4-difluoro-3-(3H-pyrazolo[3,4-c]isoquinolin-7-yl)phenyl)propane-1-sulfonamide]
145		CCCS(=O)(=O)Nc1ccc(F)c(-c2ccc3c(cnc4[nH]nc(Br)c43)c2)c1F [Example 9, N-(3-(1-bromo-3H-pyrazolo[3,4-c]isoquinolin-7-yl)-2,4-difluorophenyl)propane-1-sulfonamide]
145	2710	CCCS(=O)(=O)Nc1ccc(F)c(-c2ccc3c(cnc4[nH]nc(C5CC5)c43)c2)c1F [Example 10, N-(3-(1-cyclopropyl-3H-pyrazolo[3,4-c]isoquinolin-7-yl)-2,4-difluorophenyl)propane-1-sulfonamide]
95	18.3	CCCS(=O)(=O)Nc1ccc(F)c(-c2ccc3c(cnc4[nH]ncc43)c2)c1Cl [Example 11, N-(2-chloro-4-fluoro-3-(3H-pyrazolo[3,4-c]isoquinolin-7-yl)phenyl)propane-1-sulfonamide]
144		CCCS(=O)(=O)Nc1ccc(F)c(-c2ccc3c(cnc4[nH]nc(Br)c43)c2)c1Cl [Example 12, N-(3-(1-bromo-3H-pyrazolo[3,4-c]isoquinolin-7-yl)-2-chloro-4-fluorophenyl)propane-1-sulfonamide]
64	20	CCCS(=O)(=O)Nc1ccc(F)c(-c2ccc3c(cnc4[nH]nc(C5CC5)c43)c2)c1Cl [Example 13, N-(2-chloro-3-(1-cyclopropyl-3H-pyrazolo[3,4-c]isoquinolin-7-yl)-4-fluorophenyl)propane-1-sulfonamide]
66	50	O=S(=O)(CCCF)Nc1ccc(F)c(-c2ccc3c(cnc4[nH]ncc43)c2)c1F [Example 14, N-(2,4-difluoro-3-(3H-pyrazolo[3,4-c]isoquinolin-7-yl)phenyl)-3-fluoropropane-1-sulfonamide]
23	6.6	O=S(=O)(CCCF)Nc1ccc(F)c(-c2ccc3c(cnc4[nH]ncc43)c2)c1Cl [Example 15, N-(2-chloro-4-fluoro-3-(3H-pyrazolo[3,4-c]isoquinolin-7-yl)phenyl)-3-fluoropropane-1-sulfonamide]
341	41.3	CCCS(=O)(=O)Nc1ccc(Cl)c(-c2ccc3c(cnc4[nH]ncc43)c2)c1Cl [Example 16, N-(2,4-dichloro-3-(3H-pyrazolo[3,4-c]isoquinolin-7-yl)phenyl)propane-1-sulfonamide]
131	118	CCCS(=O)(=O)Nc1ccc(Cl)c(-c2ccc3c(cnc4[nH]ncc43)c2)c1F [Example 17, N-(4-chloro-2-fluoro-3-(3H-pyrazolo[3,4-c]isoquinolin-7-yl)phenyl)propane-1-sulfonamide]
1000	3740	O=S1(=O)CCCN1c1ccc(F)c(-c2ccc3c(cnc4[nH]ncc43)c2)c1F [Example 18, N-(2,4-difluoro-3-(3H-pyrazolo[3,4-c]isoquinolin-7-yl)phenyl)-1,3-propanesultam]
77	60	CCCS(=O)(=O)Nc1ccc(F)c(-c2cc3cnc4[nH]ncc4c3cc2OC)c1F [Example 19, N-(2,4-difluoro-3-(8-methoxy-3H-pyrazolo[3,4-c]isoquinolin-7-yl)phenyl)propane-1-sulfonamide]
47	10	CCCS(=O)(=O)Nc1ccc(F)c(-c2cc3cnc4[nH]ncc4c3cc2OC)c1Cl [Example 20, N-(2-chloro-4-fluoro-3-(8-methoxy-3H-pyrazolo[3,4-c]isoquinolin-7-yl)phenyl)propane-1-sulfonamide]
94	70	COc1cc2c(cnc3[nH]ncc32)cc1-c1c(F)ccc(NS(=O)(=O)CCCF)c1F [Example 21, N-(2,4-difluoro-3-(8-methoxy-3H-pyrazolo[3,4-c]isoquinolin-7-yl)phenyl)-3-fluoropropane-1-sulfonamide]
66	12	COc1cc2c(cnc3[nH]ncc32)cc1-c1c(F)ccc(NS(=O)(=O)CCCF)c1Cl [Example 22, N-(2-chloro-4-fluoro-3-(8-methoxy-3H-pyrazolo[3,4-c]isoquinolin-7-yl)phenyl)-3-fluoropropane-1-sulfonamide]
100		CCCS(=O)(=O)Nc1ccc(F)c(-c2cc3cnc4[nH]nc(C5CC5)c4c3cc2OC)c1F [Example 23, N-(3-(1-cyclopropyl-8-methoxy-3H-pyrazolo[3,4-c]isoquinolin-7-yl)-2,4-difluorophenyl)propane-1-sulfonamide]
284		CCCS(=O)(=O)Nc1ccc(F)c(-c2cc3cnc4[nH]nc(C5CC5)c4c3cc2OC)c1Cl [Example 24, N-(2-chloro-3-(1-cyclopropyl-8-methoxy-3H-pyrazolo[3,4-c]isoquinolin-7-yl)-4-fluorophenyl)propane-1-sulfonamide]
25		COc1cc2c(cnc3[nH]nc(C4CC4)c32)cc1-c1c(F)ccc(NS(=O)(=O)CCCF)c1Cl [Example 25, N-(2-chloro-3-(1-cyclopropyl-8-methoxy-3H-pyrazolo[3,4-c]isoquinolin-7-yl)-4-fluorophenyl)-3-fluoropropane-1-sulfonamide]
29.7	48.8	COc1cc2c(cnc3[nH]nc(C4CC4)c32)cc1-c1c(F)ccc(NS(=O)(=O)CCCF)c1F [Example 26, N-(3-(1-cyclopropyl-8-methoxy-3H-pyrazolo[3,4-c]isoquinolin-7-yl)-2,4-difluorophenyl)-3-fluoropropane-1-sulfonamide]
1000	690	CCCS(=O)(=O)Nc1ccc(F)c(-c2ccc3c(cnc4[nH]ccc43)c2)c1F [Example 27, N-(2,4-difluoro-3-(3H-pyrrolo[2,3-c]isoquinolin-7-yl)phenyl)propane-1-sulfonamide]
309	389	CCCS(=O)(=O)Nc1ccc(F)c(-c2ccc3c(cnc4[nH]cnc43)c2)c1F [Example 28, N-(2,4-difluoro-3-(3H-imidazo[4,5-c]isoquinolin-7-yl)phenyl)propane-1-sulfonamide]
